SMILES strings stand for the structures. Several values for one entry are separate records, joined by “and”; a condition that tells them apart may be missing. Identical values can stand only once.

We go through five compounds from patent US20060116375A1, “4-[(2,4-Dichloro-5-methoxyphenyl)amino]-6-alkoxy-7-ethynyl-3-quinolinecarbonitriles for the treatment of ischemic injury” (Wyeth, priority 2004, published 2006).

Test [1] deals with Recombinant human Src enzyme (Homo sapiens, UniProt P12931). The test can be described thus: Src kinase assay (LANCE homogeneous FRET). It counts as biochemical. The note with it: 100 μM ATP, 70 min at 37° C.; multiple entries = tested multiple times. How it is done: Recombinant human Src enzyme was obtained from PanVera (P3044). […] Homogeneous fluorescence resonance energy transfer kinase assays were performed using the europium/APC detection format (LANCE, Perkin Elmer). Src enzyme (10 ng) was mixed with biotinylated peptide (final concentration 2 μM), 50 mM Hepes (pH 7.5), 10 mM MgCl2, 20 ug/ml BSA, 0.001% Brij-35 (Sigma), 100 μM ATP, 1% DMSO. The kinase reaction was incubated for 70 min at 37° C. The reaction was stopped with EDTA at a final concentration of 30 mM EDTA/25 mM Hepes (pH 7.5)/10 μg/ml BSA. The mixture was combined with Eu-labeled anti-phosphotyrosine antibody PT66 (Perkin Elmer, AD0068) and Streptavidin Surelight-APC (Perkin Elmer, CR130-100) in 50 mM Hepes (pH 7.5)/20 μg/ml BSA, and incubated for 30 min according to manufacturer's specifications. Fluorescence intensity at 665 nm was used to monitor the extent of the kinase reaction. Multiple entries for a given compound indicate that it was tested multiple times.

Test [2] deals with Rat2 fibroblasts stably transformed with v-Src/Hu c-Src fusion gene (Homo sapiens, UniProt P12931, cells depend on it, form not given). Briefly: Anchorage independent Src-transformed fibroblast proliferation assay. Format: cell-based, rat. The note with it: suspension growth, MTS on Day 5; multiple entries = tested multiple times; read-out: Src cell IC50. How it is done: Anchorage Independent Src-transformed Fibroblast Proliferation Assay
Rat2 fibroblasts stably transformed with a plasmid containing a CMV promotor controlled v-Src/Hu c-Src fusion gene in which the catalytic domain of human c-Src was inserted in place of the v-Src catalytic domain in the v-Src gene are used for the measurement of src dependent suspension growth. Ultra-low cluster plates (Costar # 3474) are seeded with 10,000 cells per well on Day 1. Alternatively, Ultra-low cluster plates (Costar 3474) treated with Sigmacote (Sigma), rinsed with 70% ethanol, after drying in the hood, are seeded with 5000 cells.

For test [3], the system named is rat model of transient focal ischemia. Briefly: Rat model of transient focal ischemia (90 min MCA occlusion, reperfusion 48 hours). It counts as in vivo, Wistar rats. The note with it: for reduction in infarct volume as a percent of control: 48 hours post MCA occlusion, statistical error 7-10%; for improved recovery from stroke-induced neurological deficits, as a percent of control: evaluated over 48 hours, statistical error 10-12%. How it is done:
IV Administration of Example 2 Provides Neuroprotection in a Model of Transient Focal Ischemia
Example 2 was tested in a rat model of transient focal ischemia. Wistar rats were subjected to a 90 min occlusion of the middle cerebral artery (MCA) using an intraluminal suture approach as described by Longa et al., Stroke 1989, 20:84 followed by reperfusion for 48 hours. Four hours after the initial onset of ischemia, animals received compound of Example 2 as a single i.v. bolus in 5% dextrose, 0.9% lactic acid at pH 4.5-5.0 (3 mg/kg, 10 mg/kg or 30 mg/kg). Following reperfusion, the animals were evaluated over a 48 hour period for neurological function deficit. Infarct size was measured following sacrifice at 48 hours post MCA occlusion.

The subject of test [4] is rat model of permanent occlusion of middle cerebral artery. Briefly: Rat model of permanent occlusion of middle cerebral artery (permanent focal ischemia). Format: in vivo. The procedure:
IV Administration of Example 2 Provides Neuroprotection and Improves Long-Term Neurological Recovery in a Model of Permanent Focal Ischemia
Example 2 was tested in a rat model of permanent occlusion of middle cerebral artery, without the reperfusion, substantially as described by Chen et al., Stroke, 1986, 17:738. This is a more stringent model than the transient focal ischemia. Two hours following an electrocoagulation of middle cerebral artery, vehicle or Example 2 were administered at 10 mg/kg i.v followed by 3 additional doses of 10 mg/kg iv administered at 4, 24 and 26 hours post-induction of stroke. In one study, volume of infracted brain tissue was evaluated at 48 hour post-stroke. In a second study, animals were subjected to testing of sensori-motor function based on tactile and propioceptive limb placement substantially as described by DeRyck et al., Brain Res. 1992, 573:44 at three day intervals over a timecourse of three weeks following stroke. In the animals treated with Example 2 a statistically significant reduction by 24% of the infarct volume was found at 48 hours post-induction of stroke.

The subject of test [5] is rat model of intracerebral hemorrhage. The test can be described thus: Rat model of intracerebral hemorrhage induced by intrastriatal infusion of collagenase. It counts as in vivo. The note with it: measured 24 hours later. The procedure:
IV Administration of Example 2 Provides Neuroprotection in the Model of Hemorrhagic Stroke
Example 2 was tested in a rat model of intracerebral hemorrhage induced by intrastriatal infusion of collagenase substantially as described by Rosenberg et al., Stroke, 1990, 20:801. In this model, infusion of collagenase into caudate nucleus leads to proteolytic destruction of collagen in basal lamina of blood vessels and induces intracranial bleeding and edema peaking in 24-48 hours. Example 2 was administered at 4 hours post-induction of hemorrhagic stroke as a single i.v injection at the doses of 10 mg/kg or 30 mg/kg. 24 hours later brain water content was determined as a measure of edema.

Where [6] appears, read: 10 mg/kg single i.v. bolus 4 hours after onset of ischemia.
Where [7] appears, read: 30 mg/kg single i.v. bolus 4 hours after onset of ischemia.

Sequence of Recombinant human Src enzyme (P12931 whole entry): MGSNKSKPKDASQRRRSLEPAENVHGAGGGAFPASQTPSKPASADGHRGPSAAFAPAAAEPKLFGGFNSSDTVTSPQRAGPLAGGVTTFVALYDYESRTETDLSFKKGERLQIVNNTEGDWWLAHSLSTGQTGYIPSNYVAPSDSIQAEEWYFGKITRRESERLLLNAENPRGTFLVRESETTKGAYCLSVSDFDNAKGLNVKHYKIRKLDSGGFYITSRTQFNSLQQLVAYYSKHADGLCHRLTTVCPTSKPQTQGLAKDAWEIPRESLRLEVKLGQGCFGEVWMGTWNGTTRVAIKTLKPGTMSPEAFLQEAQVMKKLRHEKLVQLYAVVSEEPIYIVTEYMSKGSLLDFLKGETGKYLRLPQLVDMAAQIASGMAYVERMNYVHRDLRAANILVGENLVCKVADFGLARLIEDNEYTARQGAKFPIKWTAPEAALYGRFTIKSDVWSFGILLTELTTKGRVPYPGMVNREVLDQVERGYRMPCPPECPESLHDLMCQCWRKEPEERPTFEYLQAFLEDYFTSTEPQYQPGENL
Sequence of Rat2 fibroblasts stably transformed with v-Src/Hu c-Src fusion gene (P12931 whole entry, stated change not applied, the tested form may be a part): as the sequence (P12931 whole entry) above

For the compound `COc1cc(Nc2c(C#N)cnc3cc(C#CCCN4CCNCC4)c(OC)cc23)c(Cl)cc1Cl` [Example 4, 4-[(2,4-Dichloro-5-methoxyphenyl)amino]-6-methoxy-7-(4-Piperazin-1-ylbut-1-ynyl)-3-quinolinecarbonitrile], the IC50 in test [1] was 5.9 nM and 4.8 nM. Besides, the GI50 in test [2] was 435 nM and 605 nM.
For the compound `COc1cc(Nc2c(C#N)cnc3cc(C#CCCN4CCOCC4)c(OC)cc23)c(Cl)cc1Cl` [Example 3, 4-[(2,4-Dichloro-5-methoxyphenyl)amino]-6-methoxy-7-(4-morpholin-4-ylbut-1-ynyl)-3-guinolinecarbonitrile], in test [1], the IC50 is 4 nM and 4.1 nM. For the same compound, in test [2], the GI50 is 206 nM and 183 nM.
In the case of `COc1cc(Nc2c(C#N)cnc3cc(C#CCCN(C)C)c(OC)cc23)c(Cl)cc1Cl` [Example 1, 4-[(2,4-Dichloro-5-methoxyphenyl)amino]-7-[4-(dimethylamino)but-1-ynyl]-6-methoxy-3-guinolinecarbonitrile], in test [1], the IC50 was 5 nM and 4.7 nM. For the same compound, in test [2], the GI50 is 252 nM and 240 nM.
Regarding `COc1cc(Nc2c(C#N)cnc3cc(C#CCCN4CCN(C)CC4)c(OC)cc23)c(Cl)cc1Cl` [Example 2, 4-[(2,4-Dichloro-5-methoxyphenyl)amino]-6-methoxy-7-[4-(4-methylpiperazin-1-yl)but-1-ynyl]-3-guinolinecarbonitrile], the “reduction in infarct volume as a percent of control” value was 32% in test [3] (setting [6]) and 40% in test [3] (setting [7]). Also, the “improved recovery from stroke-induced neurological deficits, as a percent of control” value came to 35% in test [3] (setting [6]) and 53% in test [3] (setting [7]). In addition, the IC50 in test [1] is 3.5 nM and 4.2 nM. In addition, in test [2], the GI50 is 71 nM and 70 nM and 77 nM. Further, the “reduction of the infarct volume” value in test [4] (10 mg/kg i.v. at 2, 4, 24 and 26 hours post-induction of stroke, 48 hours post-stroke) is recorded as 24%. The “long-term sensorimotor recovery from neurological deficits (limb placement)” value in test [4] (10 mg/kg i.v. at 2, 4, 24 and 26 hours post-stroke, tested at three day intervals over three weeks) was “significantly improved long-term sensorimotor recovery”. For the same compound, the “reduction of post-hemorrhagic brain edema (brain water content)” value in test [5] (10 mg/kg single i.v. injection 4 hours post-induction) stood at 18%; in test [5] (30 mg/kg single i.v. injection 4 hours post-induction) it was 24%.
With `CCOc1cc2c(Nc3cc(OC)c(Cl)cc3Cl)c(C#N)cnc2cc1C#CCCN1CCN(C)CC1` [Example 5, 4-[(2,4-Dichloro-5-methoxyphenyl)amino]-6-ethoxy-7-[4-(4-methylpiperazin-1-yl)but-1-ynyl]-3-quinolinecarbonitrile], the IC50 in test [1] was 6.5 nM and 2.8 nM. Further, in test [2], the GI50 was 96 nM and 183 nM and 154 nM and 103 nM.
